Series [1] deals with Wnt-responsive promoter (TCF/LEF). Kind of series: Wnt-dependent luciferase reporter assay. Format: cell-based, murine. The method in brief:
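EC50 (uM) derived from inhibition of luminescence in Wnt3a-stimulated murine 3T3 cells expressing luciferase under a TCF/LEF promoter, with peptides added across a concentration range and vehicle as control.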
(In general: In a reporter assay the amount or activity of a reporter protein is the signal.)

In series [2] the target is T1, β-catenin (Homo sapiens, UniProt P35222).
T1 sequence (P35222 1-781): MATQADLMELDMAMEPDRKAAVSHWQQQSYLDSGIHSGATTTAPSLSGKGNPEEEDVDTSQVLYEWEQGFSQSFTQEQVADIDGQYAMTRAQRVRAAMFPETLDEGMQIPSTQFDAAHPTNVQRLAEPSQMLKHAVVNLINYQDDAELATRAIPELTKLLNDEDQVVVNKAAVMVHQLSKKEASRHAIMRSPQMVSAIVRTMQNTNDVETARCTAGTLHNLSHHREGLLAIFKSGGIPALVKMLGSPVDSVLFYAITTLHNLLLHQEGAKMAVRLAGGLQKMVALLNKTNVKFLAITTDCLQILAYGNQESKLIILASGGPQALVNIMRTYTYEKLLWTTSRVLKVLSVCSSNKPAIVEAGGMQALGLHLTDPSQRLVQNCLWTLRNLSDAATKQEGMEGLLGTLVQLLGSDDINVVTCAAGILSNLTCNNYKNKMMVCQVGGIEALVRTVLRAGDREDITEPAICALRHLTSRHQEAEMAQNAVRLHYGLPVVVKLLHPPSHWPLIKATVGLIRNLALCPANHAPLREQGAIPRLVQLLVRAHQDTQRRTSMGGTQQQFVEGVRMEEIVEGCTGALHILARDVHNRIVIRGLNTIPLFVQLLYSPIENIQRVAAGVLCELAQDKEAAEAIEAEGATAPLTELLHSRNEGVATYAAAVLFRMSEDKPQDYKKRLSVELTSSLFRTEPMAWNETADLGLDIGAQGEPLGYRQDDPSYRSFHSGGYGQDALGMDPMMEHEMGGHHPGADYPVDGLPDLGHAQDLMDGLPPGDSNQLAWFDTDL
Description: KD50 measurement using competitive fluorescence polarization (FP) with labelled TCF4. Format: binding. The following applies: fluorescence polarization, β-catenin; for Kd: read-out: β-Cat FP KD. The method in brief: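 Competitive FP in which unlabelled inhibitor (10 nM to 30 uM dilution series) displaces 5 nM labelled TCF4 from 100 nM β-catenin, room temperature. Read-out ex 470 nm, em 520 nm; experiment repeated three times.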
(In general: Polarisation of emitted light reports the rotation of a fluorescent probe.)

For series [3] the following is noted: % Viability non-Wnt responsive cells.

Where a SMILES comes first, the peptide text is derived from it. Some results are limits rather than exact numbers.

For `CC[C@H](C)[C@@H]1NC(=O)[C@H](CC(C)C)NC(=O)[C@H](Cc2ccccc2)NC(=O)[C@H](Cc2c[nH]c3ccccc23)NC(=O)[C@H](CCSC)NC(=O)CCCNC(=O)C[C@@H](C(=O)O)NC(=O)[C@H](Cc2c[nH]c3ccccc23)NC(=O)[C@H](Cc2ccccc2)NC(=O)[C@H](CS)NC1=O` [compound 147] (HELM PEPTIDE1{[O=C(CCCN[*:1])[*:2]].M.W.F.L.I.C.F.W.D}$PEPTIDE1,PEPTIDE1,1:R1-10:R3$$$V2.0), the EC50 in series [1] is above 30 µM. For the same molecule, in series [2], the Kd was above 30 µM. For the same molecule, in series [3], the viability is 105%.
In series [1], `CC[C@H](C)[C@H](NC(=O)[C@H](CC(C)C)NC(=O)[C@H](Cc1ccccc1)NC(=O)[C@H](Cc1c[nH]c2ccccc12)NC(=O)[C@@H](N)CCSC)C(=O)N[C@@H](CCC(N)=O)C(=O)N[C@@H](Cc1ccccc1)C(=O)N[C@@H](Cc1ccc(O)cc1)C(=O)NCC(=O)O` [compound 149] (H-MWFLIQFYG-OH) had an EC50 of 7.5 to 15 µM. Further, in series [2], the “β-Cat FP Hill slope” value worked out at 0.75 and the Kd was 0.4 to 1 µM. Further, the viability in series [3] came to 104%.
In series [1], `CC[C@H](C)[C@H](NC(=O)[C@H](Cc1c[nH]c2ccccc12)NC(=O)[C@@H](N)CCSC)C(=O)N[C@@H](CC(C)C)C(=O)N[C@H](C(=O)N[C@H](C(=O)N[C@@H](Cc1ccccc1)C(=O)N[C@@H](Cc1c[nH]c2ccccc12)C(=O)NCC(=O)O)[C@@H](C)O)[C@@H](C)CC` [compound 150] (H-MWILITFWG-OH) gave an EC50 below 7.5 µM. Also, the Kd in series [2] was above 30 µM. Further, the viability in series [3] was determined as 99.8%.
As to `CC[C@H](C)[C@H](NC(=O)[C@H](CC(C)C)NC(=O)[C@H](Cc1ccccc1)NC(=O)[C@H](Cc1c[nH]c2ccccc12)NC(=O)[C@@H](N)CCSC)C(=O)N[C@@H](CCCCN)C(=O)N[C@@H](Cc1ccccc1)C(=O)N[C@@H](Cc1ccc(O)cc1)C(=O)NCC(=O)O` [compound 151] (H-MWFLIKFYG-OH), the EC50 in series [1] lay in the range of 15 to 22.5 µM. Also, in series [2], the “β-Cat FP Hill slope” value worked out at 0.7 and the Kd was 0.4 to 1 µM. The viability in series [3] was determined as 107%.
Take `CC[C@H](C)[C@H](NC(=O)[C@H](CC(C)C)NC(=O)[C@@H](NC(=O)[C@H](Cc1c[nH]c2ccccc12)NC(=O)[C@@H](N)CCSC)[C@@H](C)CC)C(=O)N[C@@H](CO)C(=O)N[C@@H](Cc1ccc(O)cc1)C(=O)N[C@@H](Cc1c[nH]c2ccccc12)C(=O)NCC(=O)O` [compound 152] (H-MWILISYWG-OH): the EC50 in series [1] was below 7.5 µM. The equilibrium dissociation constant (Kd) in series [2] is above 30 µM. Besides, in series [3], the viability came out at 114%.
In turn, `CC[C@H](C)[C@H](NC(=O)[C@H](CC(C)C)NC(=O)[C@H](Cc1ccccc1)NC(=O)[C@H](Cc1c[nH]c2ccccc12)NC(=O)[C@@H](N)CCSC)C(=O)N[C@@H](CS)C(=O)N[C@@H](Cc1ccccc1)C(=O)N[C@@H](Cc1c[nH]c2ccccc12)C(=O)NCCCC(=O)O` [compound 153] (HELM PEPTIDE1{M.W.F.L.I.C.F.W.[O=C(O)CCCN[*:1]]}$$$$V2.0) gave an EC50 in series [1] below 7.5 µM. In addition, the Kd in series [2] is above 30 µM. Besides, the viability in series [3] was found to be 104%.
For `CC[C@H](C)[C@H](NC(=O)[C@H](CC(C)C)NC(=O)[C@H](Cc1ccccc1)NC(=O)[C@H](Cc1c[nH]c2ccccc12)NC(=O)[C@@H](N)CCSC)C(=O)N[C@@H](CS)C(=O)N[C@@H](Cc1ccccc1)C(=O)N[C@@H](Cc1c[nH]c2ccccc12)C(=O)NCC(=O)O` [compound 154] (H-MWFLICFWG-OH), the EC50 in series [1] lay within 15 to 22.5 µM. The Kd in series [2] was above 30 µM. Besides, the viability in series [3] came out at 103%.
Regarding `CC[C@H](C)[C@H](NC(=O)[C@H](CC(C)C)NC(=O)[C@@H](NC(=O)[C@H](Cc1c[nH]c2ccccc12)NC(=O)[C@@H](N)CCSC)[C@@H](C)CC)C(=O)N[C@@H](CO)C(=O)N[C@@H](Cc1ccccc1)C(=O)N[C@@H](Cc1c[nH]c2ccccc12)C(=O)NCC(=O)O` [compound 155] (H-MWILISFWG-OH), in series [1], the EC50 was above 30 µM. In addition, the Kd in series [2] is above 30 µM. Further, the viability in series [3] is 97%.
Consider `CC[C@H](C)[C@H](NC(=O)[C@H](CC(C)C)NC(=O)[C@H](C)NC(=O)[C@H](Cc1c[nH]c2ccccc12)NC(=O)[C@@H](N)CCSC)C(=O)N[C@@H](CO)C(=O)N[C@@H](Cc1ccccc1)C(=O)N[C@@H](Cc1c[nH]c2ccccc12)C(=O)NCC(=O)O` [compound 156] (H-MWALISFWG-OH), for which the EC50 in series [1] is below 7.5 µM. Further, the Kd in series [2] was above 30 µM. The viability in series [3] stood at 102%.
For `CC[C@H](C)[C@H](NC(=O)[C@H](C)NC(=O)[C@H](Cc1ccccc1)NC(=O)[C@H](Cc1c[nH]c2ccccc12)NC(=O)[C@@H](N)CCSC)C(=O)N[C@@H](CO)C(=O)N[C@@H](Cc1ccccc1)C(=O)N[C@@H](Cc1c[nH]c2ccccc12)C(=O)NCC(=O)O` [compound 157] (H-MWFAISFWG-OH), in that order: below 7.5 µM, above 30 µM and 99.9%.
`CSCC[C@H](N)C(=O)N[C@@H](Cc1c[nH]c2ccccc12)C(=O)N[C@@H](Cc1ccccc1)C(=O)N[C@@H](CC(C)C)C(=O)N[C@@H](C)C(=O)N[C@@H](CO)C(=O)N[C@@H](Cc1ccccc1)C(=O)N[C@@H](Cc1c[nH]c2ccccc12)C(=O)NCC(=O)O` [compound 158] (H-MWFLASFWG-OH) came in with an EC50 in series [1] of 7.5 to 15 µM. In addition, the Kd in series [2] is above 30 µM. In addition, the viability in series [3] was found to be 95.6%.
The matching figures for `CC[C@H](C)[C@H](NC(=O)[C@H](CC(C)C)NC(=O)[C@H](Cc1ccccc1)NC(=O)[C@H](Cc1c[nH]c2ccccc12)NC(=O)[C@@H](N)CCSC)C(=O)N[C@@H](C)C(=O)N[C@@H](Cc1ccccc1)C(=O)N[C@@H](Cc1c[nH]c2ccccc12)C(=O)NCC(=O)O` [compound 159] (H-MWFLIAFWG-OH): below 7.5 µM, above 30 µM and 107%.
The matching figures for `CC[C@H](C)[C@H](NC(=O)[C@H](CC(C)C)NC(=O)[C@H](Cc1ccccc1)NC(=O)[C@H](Cc1c[nH]c2ccccc12)NC(=O)[C@@H](N)CCSC)C(=O)N[C@@H](CO)C(=O)N[C@@H](C)C(=O)N[C@@H](Cc1c[nH]c2ccccc12)C(=O)NCC(=O)O` [compound 160] (H-MWFLISAWG-OH): below 7.5 µM, above 30 µM and 102%.
The matching figures for `CC[C@H](C)[C@H](NC(=O)[C@H](CC(C)C)NC(=O)[C@H](Cc1ccccc1)NC(=O)[C@H](Cc1c[nH]c2ccccc12)NC(=O)[C@@H](N)CCSC)C(=O)N[C@@H](CO)C(=O)N[C@@H](Cc1ccccc1)C(=O)N[C@@H](C)C(=O)NCC(=O)O` [compound 161] (H-MWFLISFAG-OH): 15 to 22.5 µM, above 30 µM and 103%.
The molecule `CC[C@H](C)[C@H](NC(=O)[C@H](CC(C)C)NC(=O)[C@H](Cc1ccccc1)NC(=O)[C@H](Cc1c[nH]c2ccccc12)NC(=O)[C@@H](N)CCSC)C(=O)N[C@@H](CO)C(=O)N[C@@H](Cc1ccccc1)C(=O)N[C@@H](Cc1c[nH]c2ccccc12)C(=O)N[C@@H](C)C(=O)O` [compound 162] (H-MWFLISFWA-OH) yielded an EC50 in series [1] of 7.5 to 15 µM. For the same molecule, the Kd in series [2] was above 30 µM. For the same molecule, in series [3], the viability was 104%.
The matching figures for `CC[C@H](C)[C@H](NC(=O)[C@H](CC(C)C)NC(=O)[C@H](Cc1ccccc1)NC(=O)[C@H](Cc1c[nH]c2ccccc12)NC(=O)[C@@H](N)CCSC)C(=O)N[C@@H](Cc1c[nH]cn1)C(=O)N[C@@H](Cc1ccccc1)C(=O)N[C@@H](Cc1c[nH]c2ccccc12)C(=O)NCC(=O)O` [compound 163] (H-MWFLIHFWG-OH): below 7.5 µM, above 30 µM and 100%.
In the case of `CCCC[C@H](N)C(=O)N[C@@H](Cc1c[nH]c2ccccc12)C(=O)N[C@@H](Cc1ccccc1)C(=O)N[C@@H](CC(C)C)C(=O)N[C@H](C(=O)N[C@@H](CS)C(=O)N[C@@H](Cc1ccccc1)C(=O)N[C@@H](Cc1c[nH]c2ccccc12)C(=O)NCC(=O)O)[C@@H](C)CC` [compound 164] (HELM PEPTIDE1{[Nle].W.F.L.I.C.F.W.G}$$$$V2.0), in series [1], the EC50 was below 7.5 µM. Besides, in series [2], the “β-Cat FP Hill slope” value came out at 0.7 and the Kd lay within 0.4 to 1 µM. Further, in series [3], the viability is 100%.
For `CC[C@H](C)[C@H](NC(=O)[C@H](CC(C)C)NC(=O)[C@@H](NC(=O)[C@H](Cc1c[nH]c2ccccc12)NC(=O)[C@H](CCSC)NC(C)=O)[C@@H](C)CC)C(=O)N[C@@H](CO)C(=O)N[C@@H](Cc1ccccc1)C(=O)N[C@@H](Cc1c[nH]c2ccccc12)C(=O)NCC(=O)O` [compound 165] (Ac-MWILISFWG-OH), in that order: below 7.5 µM, 2.99, below 0.4 µM and 102%.

In general, EC50 refers to the concentration needed to bring the measured effect to its halfway point. Read a low EC50 as greater potency. What is called Kd is the concentration at which binding is half-saturated. As a reminder, the viability is a read-out of living cells in per cent, often relative to untreated cells.

The values above are taken from US12441768B2, “Compositions and methods for treating endometriosis” (EndoMet Biosciences, Inc., priority 2018, dated 2025).
